{"source": "patent US12594271B2", "about": "“Combination therapy for cancer” (Health Research, Inc., priority 2019, dated 2026)", "key": {"4T1 tumors cells": {"system": "4T1 tumors cells", "experiment": "4T1 orthotopic mammary tumor model: tumor growth and spontaneous lung metastases", "type": "in vivo, mice", "settings": "BRQ 10 mg/kg i.p. daily", "method": "FIG. 1. […] (A) 4T1 growth in mice treated daily with BRQ (10 mg/kg, i.p.), anti-PD-1 ([…], i.p. at the indicated 3 or 4 times) or both agents. n=5 mice/group/experiment for upper and lower graphs; *P<0.01 against single-agent treatments. B-D, data shown are for analysis of A, upper graph. (B) Spontaneous metastatic lung counts; *P<0.01. Similar patterns seen in the 2nd experiment (avg. #mets): vehicle=12; BRQ=1; αPD-1=5; combo=1. (C) Splenic granulocytic (CD11b^+Ly6C^loLy6G^+) or monocytic (CD11b^+Ly6C^hiLy6G^−) numbers in non-tumor-bearing (NTB) or tumor-bearing mice were converted to a ratio for group-by-group comparison; *P<0.03. (D) Splenic CD3^+ T cell numbers in tumor-bearing mice. (E) Splenic CD8^+ T cells in A (lower graph) were assayed based on differential expression of CD44:naïve ([…]) vs. effector/central memory (hi) phenotypes. *P<0.03. Data reported as a ratio to indicate a rising memory pool. […]\nTreatment of Tumor-Bearing Mice Alters Surface Phenotype of Myeloid Cells. […] Female BALB/c or C57BL/6 mice were orthotopically implanted with 4T1 or AT-3 mammary tumor cells, respectively, and were monitored 3 times weekly for tumor growth. […]\nEffect of Treatment of Tumor-Bearing Mice with BRQ on the Efficacy of Anti-Tumor Immunotherapy. […] At endpoint, BM cells or spleens were collected and analyzed for the indicated populations by flow cytometry. […]"}, "MDSCs": {"system": "MDSCs", "experiment": "Phenotype, viability and morphology of in vitro generated MDSC cultures", "type": "cell-based, mouse", "method": "In Vitro Development of MDSCs. Unfractionated mouse bone marrow cells were cultured in dishes with recombinant mouse G-CSF and recombinant mouse GM-CSF (40 ng/ml of each cytokine) for 96 hours to produce MDSCs, as described (Marigo et al. Immunity 32:790-802, 2010). After culture, cells were collected and analyzed by flow cytometry for the indicated cell surface markers. Uncultured or fresh bone marrow (BM) cells served as a negative control.\nEffect of BRQ Treatment on In Vitro Generated MDSCs. As in FIG. 4, MDSCs were generated in vitro, but now with or without (vehicle) the concurrent addition of brequinar (BRQ) (1 μM) at the start of the culture. After culture, cells were collected and analyzed by flow cytometry for the indicated cell surface markers. Uncultured (fresh) BM cells served as a negative control. Viable cells were enumerated by trypan blue dye exclusion (bottom left panel, % viability; bottom right panel, total viable cells recovered).\nCells Treated with BRQ Appear More Mature Morphologically and Phenotypically. Methods were the same as in FIG. 6. MDSCs were generated in vitro with or without BRQ. Afterwards, cells were collected and analyzed morphologically by Wright-Giemsa staining of cytospin-prepared slides. Left top panel, representative photomicrograph images [(arrows indicate representative immature myeloid (−BRQ) vs. mature (+BRQ) cell types)]; Left bottom panel, the % of each cell type was quantified as follows. Cells were classified into 3 main morphologic cell types, as shown. For the lower panel, 300 cells were analyzed per random field and 3 separate fields were analyzed (totaling 900 cells). The average number of each cell type was determined by dividing by 3, and the data were converted to a percentage within the total population. Using the in vitro assay described previously to produce MDSCs, the CD11b^+Ly6C^lo Ly6G^+ subset (also known as PMN-MDSCs) was analyzed for cell surface CD101 expression by flow cytometry on cultures without BRQ (labeled here as ‘GM-CSF+G-CSF’) or with BRQ. Isotype control staining was included as a negative control for the specificity of CD101 reactivity. Middle panel, representative histogram; right panel, mean fluorescence intensity (MFI) data quantified from 2 separate experiments."}, "AT-3 tumor cells": {"system": "AT-3 tumor cells", "experiment": "AT-3 orthotopic mammary tumor model: tumor growth and splenic flow cytometry", "type": "in vivo, mice", "method": "Treatment of Tumor-Bearing Mice Alters Surface Phenotype of Myeloid Cells. […] Female BALB/c or C57BL/6 mice were orthotopically implanted with 4T1 or AT-3 mammary tumor cells, respectively, and were monitored 3 times weekly for tumor growth. When tumors became measurable (indicated by the arrow), BRQ was administered daily (10 mg/kg intraperitoneally), and at endpoint the BM cells or spleens were collected for flow cytometric analysis for the expression (i.e., percentage or MFI value) of the indicated cell surface markers (FIGS. 13-15). We extended our in vitro studies with BRQ to […] to determine the impact of BRQ on MDSC maturation. To that end, mice bearing orthotopically implanted mammary tumors were treated with or without BRQ in vivo using a similarly previously reported dose, frequency and schedule (Sykes et al. Cell 167:171-186, 2016). The first tumor model chosen was 4T1, which is an aggressive mammary tumor cell line that induces a robust MDSC response largely comprised of PMN-MDSCs.\nFemale C57BL/6 mice were orthotopically implanted with AT-3 tumor cells and were monitored 3 times weekly for tumor growth. When tumors became measurable, BRQ was administered daily (10 mg/kg intraperitoneally), and at endpoint the spleens were collected and analyzed by flow cytometry for the indicated cell surface markers. Tumor growth is shown in the upper panel of FIG. 16 while representative flow cytometry data is shown in the lower panel."}, "E0771": {"system": "E0771", "experiment": "E0771 mammary tumor model: bone marrow multi-spectral flow cytometry", "type": "in vivo", "settings": "endpoint", "method": "BRQ Alters the Bone Marrow Myeloid Compartment in Triple Negative Breast Cancer Model. This study was performed in another mammary tumor model, termed E0771. The experimental design is as described in FIG. 12 and bone marrow cells were collected at endpoint, as in FIG. 19 for flow cytometric analysis. Here, BM samples were analyzed by multi-spectral high dimensional flow cytometry using a Cytek Aurora Spectral Flow Cytometer and the data are illustrated as a TSNE plot (i.e, t-distributed Stochastic Neighbor). Circled regions refer to the data of interest."}, "[1]": {"settings": "BRQ 1 μM, trypan blue dye exclusion"}, "[2]": {"settings": "bone marrow cells cultured with BRQ, morphologic analyses"}, "[3]": {"settings": "cultures with BRQ, Wright-Giemsa staining"}}, "note": "Entries after “also recorded” stand apart in the source; their conditions may differ."}
{"smiles": "Cc1c(-c2ccc(-c3ccccc3F)cc2)nc2ccc(F)cc2c1C(=O)O", "note": "[BRQ, 6-Fluoro-2-(2′-fluoro-[1,1′-biphenyl]-4-yl)-3-methylquinoline-4-carboxylic acid]", "values": [{"measurement": "Spontaneous metastatic lung counts (avg. #mets)", "setting": "4T1 tumors cells; 2nd experiment, anti-PD-1 200 μs i.p. 3 or 4 times, endpoint", "value": 1}, {"measurement": "4T1 tumor growth", "setting": "4T1 tumors cells; BALB/c mice, anti-PD-1 200 μg i.p.", "value": "little effect on tumor growth; also recorded: only a nominal effect on primary tumor growth"}, {"measurement": "generation of CD11b+Gr-1+ cells", "setting": "MDSCs; BRQ 1 μM, flow cytometry", "value": "did not substantially alter"}, {"measurement": "cell viability", "setting": "MDSCs; [1]", "value": "not significantly altered"}, {"measurement": "number of live cells recovered", "setting": "MDSCs; [1]", "value": "substantially reduced"}, {"measurement": "mature myeloid cells (mainly neutrophils and macrophages)", "setting": "MDSCs; [2]", "value": "corresponding increase in mature myeloid cells"}, {"measurement": "reduction in immature myeloid cells", "setting": "MDSCs; [2]", "value": 75, "unit": "%"}, {"measurement": "immature cell types", "setting": "MDSCs; [3]", "value": "reduction in immature cell types"}, {"measurement": "proportion of macrophages", "setting": "MDSCs; [3]", "value": "no demonstrable effect"}, {"measurement": "proportion of segmented neutrophils", "setting": "MDSCs; [3]", "value": "increased the proportion of segmented neutrophils"}, {"measurement": "cell surface CD101 expression (MFI) on CD11b+Ly6CloLy6G+ subset", "setting": "MDSCs; cultures with BRQ, flow cytometry", "value": "significantly increased the expression of CD101"}, {"measurement": "Ly6C expression on the granulocytic (PMN-MDSC) subset", "setting": "AT-3 tumor cells; AT-3-bearing mice, spleen", "value": "significantly increased the expression of Ly6C"}, {"measurement": "Ly6C or Ly6G expression on the monocytic subset", "setting": "AT-3 tumor cells; AT-3-bearing mice, spleen", "value": "no significant changes"}, {"measurement": "Ly6G expression on the surface of granulocytes", "setting": "AT-3 tumor cells; AT-3-bearing mice, spleen", "value": "increased the expression of Ly6G"}, {"measurement": "AT-3 tumor growth", "setting": "AT-3 tumor cells; C57BL/6 mice, BRQ 10 mg/kg i.p. daily", "value": "minimal effects on inhibiting tumor growth"}, {"measurement": "frequency of granulocyte progenitors (GPs) in bone marrow", "setting": "E0771", "value": "reduced the frequency of granulocyte progenitors"}, {"measurement": "frequency of monocyte progenitors (MPs) in bone marrow", "setting": "E0771", "value": "increased the frequency of monocyte progenitors"}]}
